Source: paper PMC11882969 (Nature Communications, 2025)
“And” between values parts separate entries of the source, which are not always exact repeats. Equal entries are not always repeated.

Legend:
[1] = target: T1, CB1R with G protein (Gi1-3, Go) (Homo sapiens, UniProt P21554); experiment: GTP turnover assay (GTPase-Glo); assay type: biochemical; details: replicates, sheet FigS3c
T1 construct: a N-terminal FLAG tag and C-terminal histidine tag was added to human full-length CB1; FLAG (N); histidine tag (C); made in house; host or cells: CB1R: Spodoptera frugiperda Sf9; G proteins: Trichoplusia ni Hi5
T1 sequence (P21554 whole entry): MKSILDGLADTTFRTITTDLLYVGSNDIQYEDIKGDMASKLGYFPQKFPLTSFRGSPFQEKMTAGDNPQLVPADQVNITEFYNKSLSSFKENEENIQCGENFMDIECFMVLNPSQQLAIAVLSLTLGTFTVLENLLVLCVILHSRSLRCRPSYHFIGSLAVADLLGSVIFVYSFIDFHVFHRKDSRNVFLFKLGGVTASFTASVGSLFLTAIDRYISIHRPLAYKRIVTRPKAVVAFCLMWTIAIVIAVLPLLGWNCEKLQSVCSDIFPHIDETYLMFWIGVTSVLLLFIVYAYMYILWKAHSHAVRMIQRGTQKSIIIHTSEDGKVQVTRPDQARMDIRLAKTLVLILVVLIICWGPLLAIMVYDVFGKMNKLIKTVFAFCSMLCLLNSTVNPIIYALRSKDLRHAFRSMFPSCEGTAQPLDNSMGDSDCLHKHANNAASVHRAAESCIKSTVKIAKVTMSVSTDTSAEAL
Procedure: Analysis of GTP turnover was performed by using a modified protocol of the GTPase-Glo^TM assay (Promega) described previously. Ligand-bound (10 μM ligand incubated for one hour at room temperature) or apo CB1R (1 μM) was mixed with G protein (1 μM) in 20 mM HEPES, pH 7.5, 50 mM NaCl, 0.01% L-MNG/0.001% CHS, 100 μM TCEP, 10 μM GDP and 10 μM GTP and incubated at room temperature. GTPase-Glo-reagent was added to the sample after incubation for 60 min (Gi1-3) and 20 min for (Go). Luminescence was measured after the addition of detection reagent and incubation for 10 min at room temperature using a SpectraMax Paradigm plate reader.

[2] = test system: mice; experiment: Rotarod test; assay type: in vivo, mouse
[3] = test system: mice; experiment: Hot plate, 52 °C; assay type: in vivo, mouse; details: for Jump / Paw lick / Paw shake / Paw withdrawal: individual animals, FigS11b
[4] = target: panel of 320 non-olfactory GPCRs (Homo sapiens, UniProt Q96RI9); assay type: cell-based
[5] = target: panel of 320 non-olfactory GPCRs (Homo sapiens, UniProt P30518); assay type: cell-based
Chain of panel of 320 non-olfactory GPCRs (Homo sapiens, UniProt P30518) (P30518 whole entry): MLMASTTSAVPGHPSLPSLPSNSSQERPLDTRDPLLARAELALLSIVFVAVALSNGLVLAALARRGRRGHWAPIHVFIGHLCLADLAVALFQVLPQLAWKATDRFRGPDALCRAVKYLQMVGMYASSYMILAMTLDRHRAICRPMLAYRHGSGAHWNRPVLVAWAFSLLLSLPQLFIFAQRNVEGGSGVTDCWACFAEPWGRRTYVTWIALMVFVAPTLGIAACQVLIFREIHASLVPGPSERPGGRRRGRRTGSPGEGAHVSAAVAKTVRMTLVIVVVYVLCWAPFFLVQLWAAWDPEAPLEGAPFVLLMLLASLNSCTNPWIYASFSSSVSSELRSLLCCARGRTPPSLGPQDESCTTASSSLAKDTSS

[6] = target: panel of 320 non-olfactory GPCRs (Homo sapiens, UniProt Q8NDV2); assay type: cell-based
[7] = target: panel of 320 non-olfactory GPCRs (Homo sapiens, UniProt P30556); assay type: cell-based
[8] = target: panel of 320 non-olfactory GPCRs (Homo sapiens, UniProt Q6QNK2); assay type: cell-based
Chain of panel of 320 non-olfactory GPCRs (Homo sapiens, UniProt Q6QNK2) (Q6QNK2 26-874): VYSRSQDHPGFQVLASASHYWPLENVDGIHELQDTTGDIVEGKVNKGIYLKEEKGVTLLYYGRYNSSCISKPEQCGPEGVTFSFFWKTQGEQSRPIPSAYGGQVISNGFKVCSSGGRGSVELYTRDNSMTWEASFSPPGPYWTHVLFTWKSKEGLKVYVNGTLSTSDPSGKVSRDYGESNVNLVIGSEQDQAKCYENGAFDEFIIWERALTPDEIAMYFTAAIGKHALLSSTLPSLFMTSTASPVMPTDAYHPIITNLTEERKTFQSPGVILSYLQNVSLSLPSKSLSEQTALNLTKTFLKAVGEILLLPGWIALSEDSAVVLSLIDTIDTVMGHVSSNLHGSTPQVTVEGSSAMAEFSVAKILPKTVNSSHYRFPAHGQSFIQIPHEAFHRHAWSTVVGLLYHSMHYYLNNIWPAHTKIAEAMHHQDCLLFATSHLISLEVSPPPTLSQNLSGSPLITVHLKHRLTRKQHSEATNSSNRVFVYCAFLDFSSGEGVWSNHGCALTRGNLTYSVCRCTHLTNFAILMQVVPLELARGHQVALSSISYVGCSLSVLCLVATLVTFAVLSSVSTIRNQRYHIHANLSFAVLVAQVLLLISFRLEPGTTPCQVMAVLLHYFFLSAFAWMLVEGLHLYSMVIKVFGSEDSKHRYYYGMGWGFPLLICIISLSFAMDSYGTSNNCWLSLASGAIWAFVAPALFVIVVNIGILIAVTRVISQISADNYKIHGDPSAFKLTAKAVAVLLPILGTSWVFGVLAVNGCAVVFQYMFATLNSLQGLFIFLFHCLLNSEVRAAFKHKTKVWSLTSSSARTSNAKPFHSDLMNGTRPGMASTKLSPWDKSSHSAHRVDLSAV

[9] = target: panel of 320 non-olfactory GPCRs (Homo sapiens, UniProt P41597); assay type: cell-based
[10] = target: panel of 320 non-olfactory GPCRs (Homo sapiens, UniProt P50052); assay type: cell-based
[11] = target: panel of 320 non-olfactory GPCRs (Homo sapiens, UniProt P30874); assay type: cell-based
Chain of panel of 320 non-olfactory GPCRs (Homo sapiens, UniProt P30874) (P30874 whole entry): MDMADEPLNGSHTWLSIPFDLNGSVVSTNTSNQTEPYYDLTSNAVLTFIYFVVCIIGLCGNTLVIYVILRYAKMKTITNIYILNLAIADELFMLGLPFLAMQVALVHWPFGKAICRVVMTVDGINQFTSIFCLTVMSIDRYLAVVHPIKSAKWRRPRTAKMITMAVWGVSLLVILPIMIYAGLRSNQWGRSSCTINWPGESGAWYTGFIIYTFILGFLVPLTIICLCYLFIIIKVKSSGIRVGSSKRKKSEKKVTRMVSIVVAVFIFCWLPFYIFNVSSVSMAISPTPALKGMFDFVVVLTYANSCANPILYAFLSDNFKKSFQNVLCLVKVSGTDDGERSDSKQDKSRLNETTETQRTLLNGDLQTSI

[12] = target: panel of 320 non-olfactory GPCRs (Homo sapiens, UniProt Q96P66); assay type: cell-based
[13] = target: panel of 320 non-olfactory GPCRs (Homo sapiens, UniProt P25106); assay type: cell-based
Chain of panel of 320 non-olfactory GPCRs (Homo sapiens, UniProt P25106) (P25106 whole entry): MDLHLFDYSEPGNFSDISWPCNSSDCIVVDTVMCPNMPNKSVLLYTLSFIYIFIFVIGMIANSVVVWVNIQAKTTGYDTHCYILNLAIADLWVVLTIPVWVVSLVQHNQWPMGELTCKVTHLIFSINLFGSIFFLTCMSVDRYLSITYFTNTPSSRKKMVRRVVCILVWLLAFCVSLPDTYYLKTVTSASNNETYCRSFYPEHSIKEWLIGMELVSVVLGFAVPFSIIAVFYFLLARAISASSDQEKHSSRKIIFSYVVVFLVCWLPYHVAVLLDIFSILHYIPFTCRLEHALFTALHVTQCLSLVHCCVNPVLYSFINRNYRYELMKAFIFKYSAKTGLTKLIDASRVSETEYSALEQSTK

[14] = target: panel of 320 non-olfactory GPCRs (Homo sapiens, UniProt Q5UAW9); assay type: cell-based
Chain of panel of 320 non-olfactory GPCRs (Homo sapiens, UniProt Q5UAW9) (Q5UAW9 whole entry): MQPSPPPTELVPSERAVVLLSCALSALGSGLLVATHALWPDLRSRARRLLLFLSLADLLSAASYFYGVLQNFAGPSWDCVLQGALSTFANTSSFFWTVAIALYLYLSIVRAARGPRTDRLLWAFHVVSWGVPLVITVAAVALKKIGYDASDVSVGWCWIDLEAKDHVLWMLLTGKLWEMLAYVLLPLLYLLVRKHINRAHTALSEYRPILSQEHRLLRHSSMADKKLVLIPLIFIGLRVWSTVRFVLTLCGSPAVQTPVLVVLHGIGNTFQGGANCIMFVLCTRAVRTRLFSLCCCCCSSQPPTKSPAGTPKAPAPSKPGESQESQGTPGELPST

[15] = target: panel of 320 non-olfactory GPCRs (Homo sapiens, UniProt P47901); assay type: cell-based
Chain of panel of 320 non-olfactory GPCRs (Homo sapiens, UniProt P47901) (P47901 whole entry): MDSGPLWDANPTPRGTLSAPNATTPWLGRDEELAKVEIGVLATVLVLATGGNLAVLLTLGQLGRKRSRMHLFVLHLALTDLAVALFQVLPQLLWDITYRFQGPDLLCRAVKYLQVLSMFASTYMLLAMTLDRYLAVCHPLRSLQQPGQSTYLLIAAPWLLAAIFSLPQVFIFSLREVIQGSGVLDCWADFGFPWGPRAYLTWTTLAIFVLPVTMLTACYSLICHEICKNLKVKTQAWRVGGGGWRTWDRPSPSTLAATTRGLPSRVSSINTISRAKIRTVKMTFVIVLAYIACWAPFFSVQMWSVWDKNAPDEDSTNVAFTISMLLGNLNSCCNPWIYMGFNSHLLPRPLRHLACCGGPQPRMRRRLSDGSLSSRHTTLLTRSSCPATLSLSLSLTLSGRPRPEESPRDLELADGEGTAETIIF

[16] = target: panel of 320 non-olfactory GPCRs (Homo sapiens, UniProt P25105); assay type: cell-based
Chain of panel of 320 non-olfactory GPCRs (Homo sapiens, UniProt P25105) (P25105 whole entry): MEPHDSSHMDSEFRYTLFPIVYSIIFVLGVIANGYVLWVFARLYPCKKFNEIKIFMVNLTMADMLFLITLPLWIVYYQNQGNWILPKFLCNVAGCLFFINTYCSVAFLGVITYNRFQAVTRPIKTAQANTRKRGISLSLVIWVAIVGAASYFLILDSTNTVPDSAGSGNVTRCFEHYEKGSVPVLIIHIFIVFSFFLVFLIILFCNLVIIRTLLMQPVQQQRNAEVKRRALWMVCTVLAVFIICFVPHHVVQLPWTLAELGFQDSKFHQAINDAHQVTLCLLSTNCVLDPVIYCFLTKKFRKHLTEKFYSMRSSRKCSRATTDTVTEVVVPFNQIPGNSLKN

[17] = target: panel of 320 non-olfactory GPCRs (Homo sapiens, UniProt P35368); assay type: cell-based
[18] = target: panel of 320 non-olfactory GPCRs (Homo sapiens, UniProt O43193); assay type: cell-based
[19] = target: panel of 320 non-olfactory GPCRs (Homo sapiens, UniProt Q9NYM4); assay type: cell-based
[20] = target: panel of 320 non-olfactory GPCRs (Homo sapiens, UniProt P21730); assay type: cell-based
Chain of panel of 320 non-olfactory GPCRs (Homo sapiens, UniProt P21730) (P21730 whole entry): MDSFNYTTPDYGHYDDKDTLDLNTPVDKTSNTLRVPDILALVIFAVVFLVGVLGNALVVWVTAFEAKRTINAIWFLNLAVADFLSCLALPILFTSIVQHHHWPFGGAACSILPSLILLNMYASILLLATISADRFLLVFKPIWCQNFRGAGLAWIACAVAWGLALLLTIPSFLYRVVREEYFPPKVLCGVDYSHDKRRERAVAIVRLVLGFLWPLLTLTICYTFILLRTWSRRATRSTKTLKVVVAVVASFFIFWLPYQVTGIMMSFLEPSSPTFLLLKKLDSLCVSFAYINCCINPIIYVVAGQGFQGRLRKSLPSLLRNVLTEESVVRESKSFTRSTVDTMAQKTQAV

[21] = target: panel of 320 non-olfactory GPCRs (Homo sapiens, UniProt Q9Y5X5); assay type: cell-based
[22] = target: panel of 320 non-olfactory GPCRs (Homo sapiens, UniProt Q96P67); assay type: cell-based
[23] = target: panel of 320 non-olfactory GPCRs (Homo sapiens, UniProt Q99788); assay type: cell-based
Chain of panel of 320 non-olfactory GPCRs (Homo sapiens, UniProt Q99788) (Q99788 whole entry): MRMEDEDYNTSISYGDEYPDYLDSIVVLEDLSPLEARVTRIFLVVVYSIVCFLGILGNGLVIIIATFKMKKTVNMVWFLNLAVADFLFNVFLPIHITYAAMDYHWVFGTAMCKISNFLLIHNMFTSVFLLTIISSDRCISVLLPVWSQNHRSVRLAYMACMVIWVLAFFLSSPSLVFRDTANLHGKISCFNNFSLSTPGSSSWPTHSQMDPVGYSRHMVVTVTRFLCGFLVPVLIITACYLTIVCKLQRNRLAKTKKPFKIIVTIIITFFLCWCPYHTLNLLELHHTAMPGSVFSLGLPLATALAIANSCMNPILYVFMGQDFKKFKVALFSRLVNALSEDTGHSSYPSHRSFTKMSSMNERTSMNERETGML

[24] = test system: panel of 320 non-olfactory GPCRs; assay type: cell-based, human
[25] = target: panel of 320 non-olfactory GPCRs (Homo sapiens, UniProt Q969N4); assay type: cell-based
Chain of panel of 320 non-olfactory GPCRs (Homo sapiens, UniProt Q969N4) (Q969N4 whole entry): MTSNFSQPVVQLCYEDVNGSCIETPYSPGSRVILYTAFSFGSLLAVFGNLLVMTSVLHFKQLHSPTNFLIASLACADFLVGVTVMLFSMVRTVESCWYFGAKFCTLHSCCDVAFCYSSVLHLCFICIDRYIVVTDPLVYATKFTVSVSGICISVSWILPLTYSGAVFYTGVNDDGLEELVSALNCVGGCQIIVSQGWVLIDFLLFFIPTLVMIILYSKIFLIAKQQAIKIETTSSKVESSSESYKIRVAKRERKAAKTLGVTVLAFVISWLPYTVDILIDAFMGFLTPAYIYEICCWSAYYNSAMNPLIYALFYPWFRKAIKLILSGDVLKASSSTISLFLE

[26] = target: hCB1 (Homo sapiens, UniProt P21554); experiment: Radioligand competition binding at hCB1; design: host or cells: HEK293SL cells, transient PEI transfection; details: for radioligand binding, competition curve point (normalized): log[drug]
Chain of hCB1 (P21554 whole entry): as the sequence (P21554 whole entry) above

## COC(=O)[C@@](C)(NC(=O)c1cc(C)n(-c2cccc(C(F)(F)F)c2)n1)c1cccs1 [‘1350]
[1]; Gi2
  GTP turnover, normalised (FUB about 100): 96.8998 and 91.3876 and 87.4526 and 89.8295 and 89.8906 and 82.6279
[1]; Gi3
  GTP turnover, normalised (FUB about 100): 81.2301 and 82.2228 and 81.0231 and 89.3188 and 82.6055 and 85.3572
[1]; Goa
  GTP turnover, normalised (FUB about 100): 86.5272 and 96.4818 and 93.6031 and 96.9291 and 99.611 and 94.5957
[1]; first block, G protein not printed (Gi2, Gi3, Goa follow)
  GTP turnover, normalised (FUB about 100): 83.1663 and 86.2553 and 85.2024 and 81.617 and 83.7026 and 83.2158
[2]; Dose 0.1 mg/kg
  rotarod performance (Figure6b), individual animals: 275 and 300
[2]; Dose 0.2 mg/kg
  rotarod performance (Figure6b), individual animals: 300 and 226 and 231 and 240 and 274 and 298 and 237 and 211
[2]; Dose 0.5 mg/kg
  rotarod performance (Figure6b), individual animals: 123 and 300 and 128 and 153
[2]; i.p.
  dose showing locomotor deficits or sedation, rotarod: 0.5 mg/kg
[3]; 0.05 mg/kg
  Jump: 0 (4×) and 2
  Paw lick: 0 (3×) and 2 and 12
  Paw shake: 20 and 22 and 48 and 24 and 12
  Paw withdrawal: 28 and 42 and 47 and 50 and 14
[3]; 0.1 mg/kg
  Jump: 0
  Paw lick: 2 and 0 (3×) and 8
  Paw shake: 16 and 18 and 6 and 22 and 4
  Paw withdrawal: 20 and 30 and 22 and 34 and 14
[3]; 0.2 mg/kg
  Jump: 8 and 0 and 34 and 14 (2×)
  Paw lick: 0
  Paw shake: 2 (2×) and 4 and 0 (2×)
  Paw withdrawal: 16 and 22 and 18 (2×) and 12
[3]; CB2R KO mice
  effect of CB2R knockout on analgesia, hot plate: did not decrease the analgesic effects
[3]; Dose 0.05 mg/kg
  hot plate response normalised to baseline (Figure4b), individual animals: 62.7 and 108.4 and 141.6 and 81.1 and 84.7 and 79 and 84.5 and 85.4 and 86.2 and 81.8
[3]; Dose 0.1 mg/kg
  hot plate response normalised to baseline (Figure4b), individual animals: 100.2 and 152.6 and 103.1 and 113.3 and 127.2 and 80.8 and 109.9 and 151.2 and 138.2 and 159.1
[3]; Dose 0.2 mg/kg
  hot plate response normalised to baseline (Figure4b), individual animals: 191.789 and 117.988 and 110.937 and 200.407 and 123.942
[3]; Dose 0.5 mg/kg
  hot plate response normalised to baseline (Figure4b), individual animals: 244.124 and 212.316 and 122.062 and 249.608 and 217.8
[3]; i.p., 30 min after injection
  lowest dose with significantly increased hot plate latency: 0.1 mg/kg
[4]
  Fold of Basal RLU: 1.2 and 1.1 and 1.5
[5]
  Fold of Basal RLU: 1.1 fold and 0.9 fold and 1.2 fold and 1.3 fold
[6]
  Fold of Basal RLU: 1.6 fold and 1.8 fold and 1.3 fold
[7]
  Fold of Basal RLU: 1.1 and 1.3 and 1.2
[8]
  Fold of Basal RLU: 0.7 fold and 0.9 fold and 1 fold and 1.1 fold
[9]
  Fold of Basal RLU: 0.9 and 1.4 and 1
[10]
  Fold of Basal RLU: 1.1 fold and 1 fold
[11]
  Fold of Basal RLU: 0.7 and 0.8 and 0.6
[12]
  Fold of Basal RLU: 1.1 fold and 0.8 fold and 0.9 fold
[13]
  Fold of Basal RLU: 1.1 fold and 1 fold and 1.6 fold and 2 fold
[14]
  Fold of Basal RLU: 1.2 and 1.1 and 1 and 1.6
[15]
  Fold of Basal RLU: 1.5 and 0.8 and 0.9 and 1.1
[16]
  Fold of Basal RLU: 1.3 fold and 0.9 fold and 1.7 fold
[17]
  Fold of Basal RLU: 1 fold and 0.8 fold and 0.6 fold and 0.9 fold
[18]
  Fold of Basal RLU: 0.7 and 0.6
[19]
  Fold of Basal RLU: 1.2 fold and 1 fold and 0.8 fold
[20]
  Fold of Basal RLU: 1.1 fold and 0.9 fold and 1.2 fold and 1 fold
[21]
  Fold of Basal RLU: 0.3
[22]
  Fold of Basal RLU: 1 fold and 1.1 fold
[23]
  Fold of Basal RLU: 1.1 and 1 and 1.2
[24]
  agonist activity at GPR55, GPR18, GPR119: no agonist activity
  off-target functional activity: little activity was seen
[25]
  Fold of Basal RLU: 0.6 fold and 0.8 fold and 0.4 fold
[26]
  Ki: 0.32 nM
[26]; M = -6.64345, replicate columns
  radioligand binding, competition curve point (normalized): 11.7845 and 1.336
[26]; M = -7.35666, replicate columns
  radioligand binding, competition curve point (normalized): 11.2233 and 0.827
[26]; M = -8.06987, replicate columns
  radioligand binding, competition curve point (normalized): 12.4018 and 13.4224
[26]; M = -8.78308, replicate columns
  radioligand binding, competition curve point (normalized): 40.0112 and 26.5903
[26]; M = -9.49629, replicate columns
  radioligand binding, competition curve point (normalized): 69.0236 and 54.2939
[26]; M = -10.2095, replicate columns
  radioligand binding, competition curve point (normalized): 97.7273 and 72.2328
[26]; M = -11.9245, replicate columns
  radioligand binding, competition curve point (normalized): 99.9439 and 88.4224
[26]; M = -13.6383, replicate columns
  radioligand binding, competition curve point (normalized): 102.525 and 91.0941
